# According to patent US11865126B2, “Method for treating anxiety disorders, headache disorders, and eating disorders with psilocybin” (priority 2019, dated 2024):
# Test system: healthy subjects
# Test: Life Changes Inventory (LCI)
# Format: in vivo, human
# From the text: In some embodiments, the Life Changes Inventory (LCI) questionnaire is utilized to evaluate the safety and/or efficacy of psilocybin. The LCI is designed as a questionnaire to investigate those variables present in the day-to-day experience of adults that might relate either to stability or decline of intellectual ability.
# The following list of outcome measures are non-exhaustive. • a. The short-term change from Baseline (Day −1 [Visit 2]) to Day 7 (Visit 5) in cognitive measures of attention, spatial and working memory and executive function was measured by a composite score of the CANTAB Panel (Spatial Working Memory [SWM], Rapid Visual Information Processing [RVP], Paired Associates Learning [PAL]). • b. The short-term change from Baseline (Day −1 [Visit 2]) to Day 7 (Visit 5) in Social Cognition Panel scales (Pictorial Empathy Test [PET], Reading the Mind in the Eyes Test [RMET], Toronto Empathy Questionnaire [TEQ], Social Value Orientation [SVO], Scale of Social Responsibility [SSR]). • c. The change from Baseline (Day −1 [Visit 2]) to Day 28 (Visit 6) in cognitive measures of attention, spatial and working memory and executive function as measured by a composite score of the CANTAB Panel (SWM, RVP, PAL). • d. The long-term change from Baseline (Day −1 [Visit 2]) to Day 84 (Visit 7) in Social Cognition Panel scales (PET, RMET, TEQ, SVO, SSR). • e. Dose-related differences between cognitive effects of psilocybin at Baseline (Day −1 [Visit 2]), Day 7 (Visit 5) and Day 28 (Visit 6), as measured by a composite score of the CANTAB Panel (SWM, RVP, PAL). • f. Dose-related differences between psychological effects of psilocybin at Baseline (Day −1 [Visit 2]), Day 7 (Visit 5) and Day 84 (Visit 7), as measured by Social Cognition Panel scales (PET, RMET, TEQ, SVO, SSR). • g. Differences in cognitive effects of psilocybin between psilocybin-naïve and experienced subjects at Baseline (Day −1 [Visit 2]), Day 7 (Visit 5) and Day 28 (Visit 6), as measured by a composite score of the CANTAB Panel (SWM, RVP, PAL). • h. Differences in Positive and Negative Affect Schedule (PANAS) after study drug administration on Day 0 (Visit 3). • i. Differences between psilocybin and placebo in the Emotion Recognition Test (ERT), Intra-Extra Dimensional Set Shift (IED), One Touch Stockings (OTS), Verbal Fluency and Digit Span Forward at Day 7 (Visit 5). • j. A composite score of the CANTAB Panel, including the following tests: • i. Spatial Working Memory (SWM) (performed at Visit 2, Visit 5, and Visit 6). • ii. Rapid Visual Information Processing (RVP) (performed at Visit 2, Visit 5, and Visit 6). • iii. Paired Associates Learning (PAL) (performed at Visit 2, Visit 5, and Visit 6). • k. Cognitive Flexibility Panel • i. Emotion Recognition Task (ERT) (performed at Visit 5). • ii. Intra-Extra Dimensional Set Shift (IED) (performed at Visit 5). • iii. One Touch Stockings (OTS) (performed at Visit 5). • iv. Verbal Fluency (performed at Visit 5). • v. Digit Span Forward (performed at Visit 5). • l. Five Dimension Altered States of Consciousness questionnaire (5D-ASC) (performed at Visit 3). • m. PANAS (performed at Visit 2 and Visit 3). • n. NEO-Five Factor Inventory (NEO-FFI) (performed at Visit 2, Visit 5, and Visit 7). • o. Symptom Checklist-90 item (SCL-90) (performed at Visit 2, Visit 5, and Visit 7). • p. Life Changes Inventory (LCI): The LCI measures changes in attitudes and values after near-death experiences often used to evaluate personal transformation following spiritually oriented experiences and practices. (performed at Visit 5 and Visit 7). • q. Social Cognition Panel scales • i. Pictorial Empathy Test (PET) (performed at Visit 2, Visit 5, and Visit 7). • ii. Reading the Mind in the Eyes Test (RMET) (performed at Visit 2, Visit 5, and Visit 7). • iii. Social Value Orientation (SVO) (performed at Visit 2, Visit 5, and Visit 7). • iv. Toronto Empathy Questionnaire (TEQ) (performed at Visit 2, Visit 5, and Visit 7). • v. […]
compound,measurement,setting,value
CN(C)CCc1c[nH]c2cccc(OP(=O)(O)O)c12 [psilocybin],LCI Self-Acceptance Scores (LS mean),"10 mg psilocybin, Day 7 (Example 19)",0.8
same,LCI Self-Acceptance Scores (LS mean),"10 mg psilocybin, Day 84 (Example 19)",0.6
same,LCI Self-Acceptance Scores (LS mean),"25 mg psilocybin, Day 7 (Example 19)",0.6
same,LCI Self-Acceptance Scores (LS mean),"25 mg psilocybin, Day 84 (Example 19)",0.6
same,"LCI - absolute change, difference Psilocybin 10 mg - Placebo",Day 7,0.4
same,"LCI - absolute change, difference Psilocybin 25 mg - Placebo",Day 7,0.3
same,"LCI - absolute change, difference Psilocybin (25 mg-10 mg)",Day 7,−0.1
same,"LCI appreciation for life, difference Psilocybin 10 mg - Placebo",Day 7,0.6
same,"LCI appreciation for life, difference Psilocybin 25 mg - Placebo",Day 7,0.5
same,"LCI appreciation for life, difference Psilocybin (25 mg-10 mg)",Day 7,−0.2
same,"LCI appreciation of death, difference Psilocybin 10 mg - Placebo",Day 7,0.1
same,"LCI appreciation of death, difference Psilocybin 25 mg - Placebo",Day 7,0.1
same,"LCI appreciation of death, difference Psilocybin (25 mg-10 mg)",Day 7,−0.0
same,"LCI concern for others, difference Psilocybin 10 mg - Placebo",Day 7,0.4
same,"LCI concern for others, difference Psilocybin 25 mg - Placebo",Day 7,0.4
same,"LCI concern for others, difference Psilocybin (25 mg-10 mg)",Day 7,0.0
same,"LCI concern for worldly achievement, difference Psilocybin 10 mg - Placebo",Day 7,−0.2
same,"LCI concern for worldly achievement, difference Psilocybin 25 mg - Placebo",Day 7,−0.1
same,"LCI concern for worldly achievement, difference Psilocybin (25 mg-10 mg)",Day 7,0.1
same,"LCI concern social, difference Psilocybin 10 mg - Placebo",Day 7,0.1
same,"LCI concern social, difference Psilocybin 25 mg - Placebo",Day 7,0.2
same,"LCI concern social, difference Psilocybin (25 mg-10 mg)",Day 7,0.1
same,"LCI quest for meaning, difference Psilocybin 10 mg - Placebo",Day 7,0.4
same,"LCI quest for meaning, difference Psilocybin 25 mg - Placebo",Day 7,0.4
same,"LCI quest for meaning, difference Psilocybin (25 mg-10 mg)",Day 7,0.0
same,"LCI religiousness, difference Psilocybin 10 mg - Placebo",Day 7,−0.1
same,"LCI religiousness, difference Psilocybin 25 mg - Placebo",Day 7,0.0
same,"LCI religiousness, difference Psilocybin (25 mg-10 mg)",Day 7,0.1
same,"LCI self-acceptance, difference Psilocybin 10 mg - Placebo",Day 7,0.7
same,"LCI self-acceptance, difference Psilocybin 25 mg - Placebo",Day 7,0.5
same,"LCI self-acceptance, difference Psilocybin (25 mg-10 mg)",Day 7,−0.1
same,"LCI spirituality, difference Psilocybin 10 mg - Placebo",Day 7,0.3
same,"LCI spirituality, difference Psilocybin 25 mg - Placebo",Day 7,0.2
same,"LCI spirituality, difference Psilocybin (25 mg-10 mg)",Day 7,−0.1
same,"LCI - absolute change, difference Psilocybin 10 mg - Placebo",Day 84,0.4
same,"LCI - absolute change, difference Psilocybin 25 mg - Placebo",Day 84,0.4
same,"LCI - absolute change, difference Psilocybin (25 mg-10 mg)",Day 84,−0.0
same,"LCI appreciation for life, difference Psilocybin 10 mg - Placebo",Day 84,0.6
same,"LCI appreciation for life, difference Psilocybin 25 mg - Placebo",Day 84,0.5
same,"LCI appreciation for life, difference Psilocybin (25 mg-10 mg)",Day 84,−0.1
same,"LCI appreciation of death, difference Psilocybin 10 mg - Placebo",Day 84,0.2
same,"LCI appreciation of death, difference Psilocybin 25 mg - Placebo",Day 84,0.2
same,"LCI appreciation of death, difference Psilocybin (25 mg-10 mg)",Day 84,0.0
same,"LCI concern for others, difference Psilocybin 10 mg - Placebo",Day 84,0.4
same,"LCI concern for others, difference Psilocybin 25 mg - Placebo",Day 84,0.5
same,"LCI concern for others, difference Psilocybin (25 mg-10 mg)",Day 84,0.1
same,"LCI concern for worldly achievement, difference Psilocybin 10 mg - Placebo",Day 84,−0.2
same,"LCI concern for worldly achievement, difference Psilocybin 25 mg - Placebo",Day 84,−0.1
same,"LCI concern for worldly achievement, difference Psilocybin (25 mg-10 mg)",Day 84,0.1
same,"LCI concern social, difference Psilocybin 10 mg - Placebo",Day 84,0.1
same,"LCI concern social, difference Psilocybin 25 mg - Placebo",Day 84,0.1
same,"LCI concern social, difference Psilocybin (25 mg-10 mg)",Day 84,0.0
same,"LCI quest for meaning, difference Psilocybin 10 mg - Placebo",Day 84,0.4
same,"LCI quest for meaning, difference Psilocybin 25 mg - Placebo",Day 84,0.4
same,"LCI quest for meaning, difference Psilocybin (25 mg-10 mg)",Day 84,−0.0
same,"LCI religiousness, difference Psilocybin 10 mg - Placebo",Day 84,−0.0
same,"LCI religiousness, difference Psilocybin 25 mg - Placebo",Day 84,0.0
same,"LCI religiousness, difference Psilocybin (25 mg-10 mg)",Day 84,0.1
same,"LCI self-acceptance, difference Psilocybin 10 mg - Placebo",Day 84,0.5
same,"LCI self-acceptance, difference Psilocybin 25 mg - Placebo",Day 84,0.5
same,"LCI self-acceptance, difference Psilocybin (25 mg-10 mg)",Day 84,0.0
same,"LCI spirituality, difference Psilocybin 10 mg - Placebo",Day 84,0.4
same,"LCI spirituality, difference Psilocybin 25 mg - Placebo",Day 84,0.4
same,"LCI spirituality, difference Psilocybin (25 mg-10 mg)",Day 84,−0.0
